Measurements published in paper PMC9719519, “Non-classical ferroptosis inhibition by a small molecule targeting PHB2” (Nature Communications, 2022).

Tests used:
Assay in all cases: biochemical
Parameters in all cases: Eurofins recombinant human kinase profiling, remaining kinase activity as % of control, 10 uM ATP
Conditions in all cases: ATP 10 uM; read-out: %Ctrl@10 μM
SAPK4(h) = molecular target: T1, SAPK4(h) (Homo sapiens, UniProt O15264)
T1 construct: gene MAPK13
Outline: (§1)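 Activity measured in a commercial panel of 401 recombinant human protein kinases run as a kinase profiling service.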

cKit(V654A)(h) = molecular target: T2, cKit(V654A)(h) (Homo sapiens, UniProt P10721, V654A)
T2 construct: gene KIT
T2 sequence (P10721 whole entry V654A): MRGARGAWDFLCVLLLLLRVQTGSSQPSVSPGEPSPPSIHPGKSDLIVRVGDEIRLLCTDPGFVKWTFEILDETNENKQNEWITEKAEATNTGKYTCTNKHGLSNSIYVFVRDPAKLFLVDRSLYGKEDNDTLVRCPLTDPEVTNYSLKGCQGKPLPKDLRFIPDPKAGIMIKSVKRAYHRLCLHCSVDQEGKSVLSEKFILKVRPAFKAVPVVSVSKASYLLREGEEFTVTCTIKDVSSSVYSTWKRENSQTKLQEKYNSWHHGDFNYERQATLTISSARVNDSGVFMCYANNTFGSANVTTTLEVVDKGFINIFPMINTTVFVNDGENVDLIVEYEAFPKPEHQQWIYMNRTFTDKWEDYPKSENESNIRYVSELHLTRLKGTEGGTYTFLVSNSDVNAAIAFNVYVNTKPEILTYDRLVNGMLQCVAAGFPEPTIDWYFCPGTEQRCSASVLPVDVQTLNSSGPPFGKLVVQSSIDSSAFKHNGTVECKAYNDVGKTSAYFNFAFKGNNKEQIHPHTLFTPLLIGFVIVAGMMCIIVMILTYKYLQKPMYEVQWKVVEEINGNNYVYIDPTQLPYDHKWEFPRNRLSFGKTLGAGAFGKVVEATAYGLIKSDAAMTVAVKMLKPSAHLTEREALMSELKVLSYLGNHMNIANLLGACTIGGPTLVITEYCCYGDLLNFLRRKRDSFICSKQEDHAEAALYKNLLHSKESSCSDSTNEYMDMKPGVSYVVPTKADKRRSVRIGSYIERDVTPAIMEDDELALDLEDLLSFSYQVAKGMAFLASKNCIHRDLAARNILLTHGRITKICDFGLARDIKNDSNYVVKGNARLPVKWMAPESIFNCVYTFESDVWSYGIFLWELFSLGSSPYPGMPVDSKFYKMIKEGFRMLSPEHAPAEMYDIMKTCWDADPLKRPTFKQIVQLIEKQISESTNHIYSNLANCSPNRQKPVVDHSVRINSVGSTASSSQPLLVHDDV
Outline: as §1

TrkA(h) = molecular target: T3, TrkA(h) (Homo sapiens, UniProt P04629)
T3 construct: gene NTRK1
Outline: as §1

Itk(h) = Itk(h) (Homo sapiens, UniProt Q08881)
Chain of Itk(h) (Q08881 whole entry): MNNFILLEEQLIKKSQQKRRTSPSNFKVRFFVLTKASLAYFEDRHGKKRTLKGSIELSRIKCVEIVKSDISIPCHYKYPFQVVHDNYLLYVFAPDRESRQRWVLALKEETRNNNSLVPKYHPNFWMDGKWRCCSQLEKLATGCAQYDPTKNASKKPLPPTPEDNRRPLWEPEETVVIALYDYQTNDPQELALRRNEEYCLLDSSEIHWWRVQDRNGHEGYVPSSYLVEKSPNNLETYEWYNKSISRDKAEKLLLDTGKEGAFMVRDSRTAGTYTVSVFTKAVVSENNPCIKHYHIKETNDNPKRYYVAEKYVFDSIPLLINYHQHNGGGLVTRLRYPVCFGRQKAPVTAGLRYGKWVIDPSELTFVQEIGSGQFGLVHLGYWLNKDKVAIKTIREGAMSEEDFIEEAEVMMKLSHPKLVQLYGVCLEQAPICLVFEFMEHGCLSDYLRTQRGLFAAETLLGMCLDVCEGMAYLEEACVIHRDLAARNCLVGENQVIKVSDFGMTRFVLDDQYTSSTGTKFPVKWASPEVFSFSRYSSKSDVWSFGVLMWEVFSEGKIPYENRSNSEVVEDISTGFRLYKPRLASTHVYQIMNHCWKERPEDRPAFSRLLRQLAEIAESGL
Outline: as §1

TAK1(h) = molecular target: T4, TAK1(h) (Homo sapiens, UniProt O43318)
T4 construct: gene MAP3K7
Outline: as §1

MST3(h) = molecular target: T5, MST3(h) (Homo sapiens, UniProt Q9Y6E0)
T5 construct: gene STK24
Outline: as §1

GRK2(h) = GRK2(h) (Homo sapiens, UniProt P25098)
Outline: as §1

CDK2/cyclinA(h) = CDK2/cyclinA(h) (Homo sapiens, UniProt P24941)
Outline: as §1

PKCδ(h) = molecular target: T6, PKCδ(h) (Homo sapiens, UniProt Q05655)
T6 construct: gene PRKCD
T6 sequence (Q05655 whole entry): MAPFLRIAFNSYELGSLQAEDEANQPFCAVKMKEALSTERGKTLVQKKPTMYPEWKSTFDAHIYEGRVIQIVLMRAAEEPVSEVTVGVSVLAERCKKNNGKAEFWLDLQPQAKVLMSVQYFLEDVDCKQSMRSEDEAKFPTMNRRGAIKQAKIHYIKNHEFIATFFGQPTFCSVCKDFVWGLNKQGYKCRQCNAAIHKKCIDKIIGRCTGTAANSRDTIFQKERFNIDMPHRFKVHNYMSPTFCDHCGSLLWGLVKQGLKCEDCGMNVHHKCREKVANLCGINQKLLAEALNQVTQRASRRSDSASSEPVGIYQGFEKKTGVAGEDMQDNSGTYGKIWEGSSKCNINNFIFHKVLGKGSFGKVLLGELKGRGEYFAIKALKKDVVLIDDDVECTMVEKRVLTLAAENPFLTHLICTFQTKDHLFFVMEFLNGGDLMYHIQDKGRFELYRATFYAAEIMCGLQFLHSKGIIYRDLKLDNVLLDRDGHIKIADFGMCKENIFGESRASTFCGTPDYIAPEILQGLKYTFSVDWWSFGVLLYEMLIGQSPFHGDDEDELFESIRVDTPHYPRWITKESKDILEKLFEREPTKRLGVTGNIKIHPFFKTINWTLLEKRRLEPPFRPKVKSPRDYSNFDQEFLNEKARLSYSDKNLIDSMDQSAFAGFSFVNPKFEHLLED
Outline: as §1

EphA4(h) = EphA4(h) (Homo sapiens, UniProt P54764)
Outline: as §1

IR(h), activated = molecular target: T7, IR(h), activated (Homo sapiens, UniProt P06213)
T7 construct: gene INSR
Outline: as §1

PhKγ2(h) = molecular target: T8, PhKγ2(h) (Homo sapiens, UniProt P15735)
T8 construct: gene PHKG2
Outline: as §1

CDK13/cyclinK(h) = CDK13/cyclinK(h) (Homo sapiens, UniProt Q14004)
Outline: as §1

AAK1(h) = AAK1(h) (Homo sapiens, UniProt Q2M2I8)
Chain of AAK1(h) (Q2M2I8 whole entry): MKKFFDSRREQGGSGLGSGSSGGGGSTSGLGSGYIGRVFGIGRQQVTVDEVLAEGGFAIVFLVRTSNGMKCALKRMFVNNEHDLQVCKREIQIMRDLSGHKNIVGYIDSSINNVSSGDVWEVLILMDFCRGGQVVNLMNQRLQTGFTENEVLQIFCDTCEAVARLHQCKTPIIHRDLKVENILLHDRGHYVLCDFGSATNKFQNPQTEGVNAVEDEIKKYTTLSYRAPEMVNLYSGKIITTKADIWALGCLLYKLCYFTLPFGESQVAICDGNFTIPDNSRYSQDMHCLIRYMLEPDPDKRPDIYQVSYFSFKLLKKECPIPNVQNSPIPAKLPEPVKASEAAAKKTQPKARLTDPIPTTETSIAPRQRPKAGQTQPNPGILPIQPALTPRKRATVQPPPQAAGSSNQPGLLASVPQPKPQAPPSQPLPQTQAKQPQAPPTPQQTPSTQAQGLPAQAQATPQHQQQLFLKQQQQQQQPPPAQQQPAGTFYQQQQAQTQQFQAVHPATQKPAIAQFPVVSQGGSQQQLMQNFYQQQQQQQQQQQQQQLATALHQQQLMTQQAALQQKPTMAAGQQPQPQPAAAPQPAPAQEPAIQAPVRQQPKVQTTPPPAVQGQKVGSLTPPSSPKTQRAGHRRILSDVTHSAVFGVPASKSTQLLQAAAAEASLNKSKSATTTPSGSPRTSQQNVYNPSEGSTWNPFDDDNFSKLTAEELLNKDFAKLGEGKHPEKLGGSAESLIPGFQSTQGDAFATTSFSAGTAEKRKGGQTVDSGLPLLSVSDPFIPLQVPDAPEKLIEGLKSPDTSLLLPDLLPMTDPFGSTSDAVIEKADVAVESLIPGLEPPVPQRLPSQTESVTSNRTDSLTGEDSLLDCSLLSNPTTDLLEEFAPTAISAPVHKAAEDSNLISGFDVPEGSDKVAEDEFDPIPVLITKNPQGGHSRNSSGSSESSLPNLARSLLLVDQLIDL
Outline: as §1

Src(T341M)(h) = Src(T341M)(h) (Homo sapiens, UniProt P12931, T341M)
Outline: as §1

Ret(V804M)(h) = Ret(V804M)(h) (Homo sapiens, UniProt P07949, V804M)
Outline: as §1

Tec(h) activated = Tec(h) activated (Homo sapiens, UniProt P42680)
Outline: as §1

Flt1(h) = Flt1(h) (Homo sapiens, UniProt P17948)
Chain of Flt1(h) (P17948 whole entry): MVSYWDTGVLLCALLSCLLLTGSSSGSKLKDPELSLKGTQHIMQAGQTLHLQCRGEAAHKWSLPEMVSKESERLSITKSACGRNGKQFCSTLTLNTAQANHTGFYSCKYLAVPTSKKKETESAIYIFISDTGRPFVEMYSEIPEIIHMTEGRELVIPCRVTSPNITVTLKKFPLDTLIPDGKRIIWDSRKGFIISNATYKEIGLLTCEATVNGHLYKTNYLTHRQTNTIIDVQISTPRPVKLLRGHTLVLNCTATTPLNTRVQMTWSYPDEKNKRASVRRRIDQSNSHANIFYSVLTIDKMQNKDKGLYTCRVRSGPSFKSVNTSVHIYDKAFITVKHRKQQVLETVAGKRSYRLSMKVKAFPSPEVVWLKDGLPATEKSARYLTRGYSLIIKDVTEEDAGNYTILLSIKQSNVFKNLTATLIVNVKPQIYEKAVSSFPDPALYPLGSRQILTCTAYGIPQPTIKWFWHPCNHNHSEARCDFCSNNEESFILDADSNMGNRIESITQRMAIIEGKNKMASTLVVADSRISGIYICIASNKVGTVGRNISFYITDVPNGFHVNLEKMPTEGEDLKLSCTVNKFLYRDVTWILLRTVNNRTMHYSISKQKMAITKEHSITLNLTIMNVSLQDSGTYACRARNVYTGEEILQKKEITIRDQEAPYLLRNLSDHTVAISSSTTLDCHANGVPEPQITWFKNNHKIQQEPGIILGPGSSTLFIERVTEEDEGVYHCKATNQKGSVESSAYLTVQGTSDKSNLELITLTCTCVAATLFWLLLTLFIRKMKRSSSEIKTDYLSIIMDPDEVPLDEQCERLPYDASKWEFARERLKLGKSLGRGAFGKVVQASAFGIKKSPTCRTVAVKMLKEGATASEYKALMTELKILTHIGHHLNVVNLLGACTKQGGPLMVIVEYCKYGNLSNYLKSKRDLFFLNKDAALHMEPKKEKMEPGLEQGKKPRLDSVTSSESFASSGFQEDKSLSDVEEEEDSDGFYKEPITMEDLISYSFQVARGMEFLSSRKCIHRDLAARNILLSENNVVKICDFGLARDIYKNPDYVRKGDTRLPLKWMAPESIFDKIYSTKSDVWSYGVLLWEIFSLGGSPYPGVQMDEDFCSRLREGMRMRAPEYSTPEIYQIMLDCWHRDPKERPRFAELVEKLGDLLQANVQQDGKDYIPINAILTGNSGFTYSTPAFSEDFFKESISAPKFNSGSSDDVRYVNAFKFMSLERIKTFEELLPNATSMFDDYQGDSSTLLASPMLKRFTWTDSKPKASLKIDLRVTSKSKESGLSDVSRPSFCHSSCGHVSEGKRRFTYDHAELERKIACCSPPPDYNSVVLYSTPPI
Outline: as §1

MAK(h) = MAK(h) (Homo sapiens, UniProt P20794)
Outline: as §1

FGFR4(h) = FGFR4(h) (Homo sapiens, UniProt P22455)
Outline: as §1

NEK7(h) = NEK7(h) (Homo sapiens, UniProt Q8TDX7)
Outline: as §1

Lck(h) = Lck(h) (Homo sapiens, UniProt P06239)
Outline: as §1

JNK3(h) = molecular target: T9, JNK3(h) (Homo sapiens, UniProt P53779)
T9 construct: gene MAPK10
Outline: as §1

T1 sequence (O15264 whole entry): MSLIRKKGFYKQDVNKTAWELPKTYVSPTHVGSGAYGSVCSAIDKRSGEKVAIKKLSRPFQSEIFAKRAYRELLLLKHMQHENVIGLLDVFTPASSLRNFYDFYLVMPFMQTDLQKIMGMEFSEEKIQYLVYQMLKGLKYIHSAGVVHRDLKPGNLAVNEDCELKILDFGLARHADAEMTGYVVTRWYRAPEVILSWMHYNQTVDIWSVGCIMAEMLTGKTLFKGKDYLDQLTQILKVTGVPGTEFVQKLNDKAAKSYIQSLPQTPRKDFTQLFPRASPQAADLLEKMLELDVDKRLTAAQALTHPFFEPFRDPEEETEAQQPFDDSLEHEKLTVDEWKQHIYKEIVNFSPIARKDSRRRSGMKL

`C1=C(c2nc(-c3cnn(C4CCNCC4)c3)cn3cc(-c4ccccc4)nc23)CCOC1` [YL-939] was tested. Which remaining activity at 10 µM (SAPK4(h)) did it give?
Its remaining activity at 10 µM is 100%.

And the remaining activity at 10 µM (cKit(V654A)(h))?
The remaining activity at 10 µM was 92%.

And the remaining activity at 10 µM (TrkA(h))?
The remaining activity at 10 µM was 75%.

And the remaining activity at 10 µM (Itk(h))?
The remaining activity at 10 µM was 106%.

And the remaining activity at 10 µM (TAK1(h))?
Its remaining activity at 10 µM is 77%.

What about the remaining activity at 10 µM (MST3(h)) of the same compound?
Its remaining activity at 10 µM is 97%.

What about the remaining activity at 10 µM (GRK2(h)) of the same compound?
Its remaining activity at 10 µM is 111%.

What about the remaining activity at 10 µM (CDK2/cyclinA(h)) of the same compound?
The remaining activity at 10 µM was 95%.

And the remaining activity at 10 µM (PKCδ(h))?
Its remaining activity at 10 µM is 81%.

And the remaining activity at 10 µM (EphA4(h))?
The remaining activity at 10 µM was 89%.

And the remaining activity at 10 µM (IR(h), activated)?
Its remaining activity at 10 µM is 91%.

And the remaining activity at 10 µM (PhKγ2(h))?
The remaining activity at 10 µM was 68%.

And the remaining activity at 10 µM (CDK13/cyclinK(h))?
The remaining activity at 10 µM was 93%.

And the remaining activity at 10 µM (AAK1(h))?
The remaining activity at 10 µM was 68%.

What about the remaining activity at 10 µM (Src(T341M)(h)) of the same compound?
Its remaining activity at 10 µM is 100%.

And the remaining activity at 10 µM (Ret(V804M)(h))?
Its remaining activity at 10 µM is 102%.

What about the remaining activity at 10 µM (Tec(h) activated) of the same compound?
Its remaining activity at 10 µM is 70%.

And the remaining activity at 10 µM (Flt1(h))?
The remaining activity at 10 µM was 65%.

What about the remaining activity at 10 µM (MAK(h)) of the same compound?
Its remaining activity at 10 µM is 74%.

What about the remaining activity at 10 µM (FGFR4(h)) of the same compound?
Its remaining activity at 10 µM is 94%.

What about the remaining activity at 10 µM (NEK7(h)) of the same compound?
The remaining activity at 10 µM was 89%.

What about the remaining activity at 10 µM (Lck(h)) of the same compound?
Its remaining activity at 10 µM is 122%.

What about the remaining activity at 10 µM (JNK3(h)) of the same compound?
Its remaining activity at 10 µM is 65%.
